What all share (assay type): cell-based
The target in one assay is T1, human P2X2/3 receptors (Homo sapiens, UniProt P56373+Q9UBL9).
T1 construct: expressed in transfected cells; host or cells: human astrocytoma 1321N1 (1312N1 [sic])
T1 sequence (P56373 1-397): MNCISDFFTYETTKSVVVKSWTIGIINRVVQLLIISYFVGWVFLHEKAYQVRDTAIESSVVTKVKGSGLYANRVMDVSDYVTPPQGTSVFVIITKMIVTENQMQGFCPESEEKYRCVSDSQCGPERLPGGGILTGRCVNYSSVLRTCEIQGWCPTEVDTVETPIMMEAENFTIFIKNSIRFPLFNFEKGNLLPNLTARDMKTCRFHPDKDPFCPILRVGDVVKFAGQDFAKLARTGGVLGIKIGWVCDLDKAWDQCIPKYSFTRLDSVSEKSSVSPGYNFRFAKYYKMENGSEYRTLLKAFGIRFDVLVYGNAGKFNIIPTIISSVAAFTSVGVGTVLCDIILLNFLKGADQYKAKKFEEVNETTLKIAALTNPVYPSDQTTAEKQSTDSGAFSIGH
T1 sequence (Q9UBL9 1-471): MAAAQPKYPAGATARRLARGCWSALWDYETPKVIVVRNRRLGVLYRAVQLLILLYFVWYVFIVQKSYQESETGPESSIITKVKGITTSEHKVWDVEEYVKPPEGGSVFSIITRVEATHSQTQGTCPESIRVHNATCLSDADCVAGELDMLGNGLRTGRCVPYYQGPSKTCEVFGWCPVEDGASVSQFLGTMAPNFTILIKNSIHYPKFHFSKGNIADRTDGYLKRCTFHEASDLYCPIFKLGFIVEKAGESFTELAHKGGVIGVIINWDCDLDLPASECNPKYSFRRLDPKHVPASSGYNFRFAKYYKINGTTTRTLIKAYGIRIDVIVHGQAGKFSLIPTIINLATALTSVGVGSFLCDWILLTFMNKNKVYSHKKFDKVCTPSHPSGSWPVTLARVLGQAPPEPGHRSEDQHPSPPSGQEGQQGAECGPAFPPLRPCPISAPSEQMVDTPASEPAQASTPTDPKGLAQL
In words: Intracellular calcium measurement, antagonist activity at human P2X2/3 receptors (hP2X23 1321N1), Fluo8. Particulars: for IC50: column 4); 1321N1 cells, human P2X2/3, Fluo8, agonist ATP at EC50; read-out: 4) hP2X2/3 IC50 [nM] (1321N1); for hP2X23/hP2X3* Selectivity (1321N1): ratio of column 4) hP2X2/3 to column 3) hP2X3, 1321N1. The method, boiled down:
(§1)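 Antagonism was assessed by decrease of the Fluo8 calcium signal after ATP challenge, with ATP dosed at the EC50 of whichever receptor was tested. Stable 1321N1 astrocytoma lines expressed either human P2X3 or both P2X2 and P2X3, and were dye-loaded 60 min before a 10 min compound incubation.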
A general note: A change in cytosolic calcium serves as a functional read-out for many receptors and channels.

For assay [1], the target named is T2, human P2X3 receptor (Homo sapiens, UniProt P56373).
T2 sequence (P56373 1-397): T1 sequence (P56373 1-397)
In words: Intracellular calcium measurement to assess antagonist activity at human P2X3 receptors (hP2X3 CHO), photina luminescence. Particulars: column 2), CHO cells, agonist α,β-methylene-ATP at EC50. Also on record: expressed in transfected cells; host or cells: Chinese hamster ovary (CHO) cells. The essentials: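 Antagonism read as lowered photina luminescence after agonist stimulation in recombinant hP2X3/photina CHO cells. Cells seeded one day earlier (30 °C) and reconstituted with 5 μg/ml coelenterazine in 2 mM Ca-tyrode buffer for 3 h at 37 °C before measurement.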

For assay [2], the target named is T2, human P2X3 receptor. The assay is described as follows: Intracellular calcium measurement, antagonist activity at human P2X3 receptors (hP2X3 1321N1), Fluo8. Also on record: expressed in transfected cells; host or cells: human astrocytoma 1321N1 (1312N1 [sic]). The note with it: column 3); 1321N1 cells, human P2X3, Fluo8, agonist ATP at EC50. The method, boiled down:
as §1

SMILES strings stand for the structures.

For `CC(=O)N1CCC(c2cc3n(CC(=O)Nc4ccc(F)cn4)c4c(c(=O)n3n2)CN(C(C)C)C4=O)CC1` [Example 263, 2-[2-(1-acetylpiperidin-4-yl)-5,8-dioxo-6-(propan-2-yl)-5,6,7,8-tetrahydro-4H-pyrazolo[1,5-a]pyrrolo[3,4-d]pyrimidin-4-yl]-N-(5-fluoropyridin-2-yl)acetamide], the IC50 on human P2X2/3 receptors was found to be 4700 nM; on human P2X3 receptor [1], 35 nM; on human P2X3 receptor [2] it was 25 nM. Besides, on human P2X2/3 receptors, the “hP2X23/hP2X3* Selectivity (1321N1)” value amounted to 191.
Regarding `CC(C)N1Cc2c(n(CC(=O)Nc3ccc(F)cn3)c3cc(C4CCN(C(=O)C(F)F)CC4)nn3c2=O)C1=O` [Example 264], the IC50 is 7400 nM on human P2X2/3 receptors, 36 nM at human P2X3 receptor [1] and 17 nM at human P2X3 receptor [2]. On human P2X2/3 receptors, the “hP2X23/hP2X3* Selectivity (1321N1)” value is recorded as 427.
Take `CCc1cc2n(CC(=O)Nc3ccc(F)cn3)c3c(c(=O)n2n1)CN(C1CCN(C(C)=O)C1)C3=O` (stereo not drawn) [Example 265]: the IC50 was over 32000 nM on human P2X2/3 receptors, 533 nM at human P2X3 receptor [1] and 470 nM at human P2X3 receptor [2]. The “hP2X23/hP2X3* Selectivity (1321N1)” value at human P2X2/3 receptors was over 68.
The like results for `CCc1cc2n(CC(=O)Nc3ccc(F)cn3)c3c(c(=O)n2n1)CN(C1CCN(C(=O)C(F)F)C1)C3=O` (stereo not drawn) [Example 266] were, in that order, over 32000 nM, 270 nM, 317 nM and over 101.
Regarding `CCc1cc2n(CC(=O)Nc3ccc(F)cn3)c3c(c(=O)n2n1)CN(C[C@H]1CN(C(C)=O)CCO1)C3=O` [Example 267], the IC50 on human P2X2/3 receptors was found to be 8000 nM; on human P2X3 receptor [1] it was 557 nM; at human P2X3 receptor [2] it was 325 nM. Also, the “hP2X23/hP2X3* Selectivity (1321N1)” value on human P2X2/3 receptors is 25.
As to `CC(C)N1Cc2c(n(CC(=O)Nc3ccc(F)cn3)c3cc(C4CCN(S(=O)(=O)CC(F)(F)F)C4)nn3c2=O)C1=O` (stereo not drawn) [Example 271], the IC50 on human P2X2/3 receptors was over 20500 nM; at human P2X3 receptor [1], 81 nM; at human P2X3 receptor [2], 36 nM. The “hP2X23/hP2X3* Selectivity (1321N1)” value on human P2X2/3 receptors is over 569.
The corresponding values for `CCc1cc2n(CC(=O)Nc3ccc(F)cn3)c3c(c(=O)n2n1)CN(C1CCN(S(C)(=O)=O)C1)C3=O` (stereo not drawn) [Example 272] are over 32000 nM, 433 nM, 610 nM and over 52.
In the case of `CC(C)N1Cc2c(n(CC(=O)Nc3ccc(F)cn3)c3cc(NCCO)nn3c2=O)C1=O` [Example 276, N-(5-fluoropyridin-2-yl)-2-{2-[(2-hydroxyethyl)amino]-5,8-dioxo-6-(propan-2-yl)-5,6,7,8-tetrahydro-4H-pyrazolo[1,5-a]pyrrolo[3,4-d]pyrimidin-4-yl}acetamide], the IC50 at human P2X2/3 receptors was over 20200 nM; on human P2X3 receptor [1], 130 nM; on human P2X3 receptor [2] it was 91 nM. Besides, the “hP2X23/hP2X3* Selectivity (1321N1)” value on human P2X2/3 receptors is given as over 223.
Turning to `CCc1cc2n(CC(=O)Nc3ccc(F)cn3)c3c(c(=O)n2n1)CN(C[C@@H]1CCCO1)C3=O` [Example 279, 2-{2-ethyl-5,8-dioxo-6-[(2S)-tetrahydrofuran-2-ylmethyl]-5,6,7,8-tetrahydro-4H-pyrazolo[1,5-a]pyrrolo[3,4-d]pyrimidin-4-yl}-N-(5-fluoropyridin-2-yl)acetamide], the IC50 was over 23000 nM at human P2X2/3 receptors, 210 nM on human P2X3 receptor [1] and 270 nM on human P2X3 receptor [2]. For the same molecule, the “hP2X23/hP2X3* Selectivity (1321N1)” value at human P2X2/3 receptors is reported as over 85.
The corresponding values for `CC(=O)Nc1cc2n(CC(=O)Nc3ccc(F)cn3)c3c(c(=O)n2n1)CN(C(C)C)C3=O` [Example 282, 2-[2-(acetylamino)-5,8-dioxo-6-(propan-2-yl)-5,6,7,8-tetrahydro-4H-pyrazolo[1,5-a]pyrrolo[3,4-d]pyrimidin-4-yl]-N-(5-fluoropyridin-2-yl)acetamide] are over 32000 nM, 110 nM, 323 nM and over 99.
Consider `CC(C)N1Cc2c(n(CC(=O)Nc3ccc(F)cn3)c3cc(NC(=O)C(F)F)nn3c2=O)C1=O` [Example 283], for which the IC50 on human P2X2/3 receptors is over 32000 nM; at human P2X3 receptor [1], 165 nM; on human P2X3 receptor [2], 347 nM. Also, the “hP2X23/hP2X3* Selectivity (1321N1)” value on human P2X2/3 receptors was over 92.
For `CC(C)N1Cc2c(n(CC(=O)Nc3ccc(F)cn3)c3cc(NC(=O)C4CCOCC4)nn3c2=O)C1=O` [Example 284], the values for the IC50 on human P2X2/3 receptors, on human P2X3 receptor [1] and on human P2X3 receptor [2] were 9350 nM, 57 nM and 47 nM, respectively. Moreover, the “hP2X23/hP2X3* Selectivity (1321N1)” value at human P2X2/3 receptors came out at 201.
`COCC(=O)Nc1cc2n(CC(=O)Nc3ccc(F)cn3)c3c(c(=O)n2n1)CN(C(C)C)C3=O` [Example 285]: the results for the IC50 at human P2X2/3 receptors, on human P2X3 receptor [1] and on human P2X3 receptor [2] were 12000 nM, 110 nM and 143 nM, respectively. Also, at human P2X2/3 receptors, the “hP2X23/hP2X3* Selectivity (1321N1)” value came to 84.
The corresponding values for `CC(C)N1Cc2c(n(CC(=O)Nc3ccc(F)cn3)c3cc(NC(=O)c4cnn[nH]4)nn3c2=O)C1=O` [Example 286] are 8200 nM, 22 nM, 33 nM and 248.
The corresponding values for `CC(C)N1Cc2c(n(CC(=O)Nc3ccc(F)cn3)c3cc(NC(=O)COCc4ccccc4)nn3c2=O)C1=O` [Example 287, 2-(benzyloxy)-N-[4-{2-[(5-fluoropyridin-2-yl)amino]-2-oxoethyl}-5,8-dioxo-6-(propan-2-yl)-5,6,7,8-tetrahydro-4H-pyrazolo[1,5-a]pyrrolo[3,4-d]pyrimidin-2-yl]acetamide] are 1800 nM, 32 nM, 48 nM and 38.
Turning to `CC(C)N1Cc2c(n(CC(=O)Nc3ccc(F)cn3)c3cc(NC(=O)CO)nn3c2=O)C1=O` [Example 289, N-[4-{2-[(5-fluoropyridin-2-yl)amino]-2-oxoethyl}-5,8-dioxo-6-(propan-2-yl)-5,6,7,8-tetrahydro-4H-pyrazolo[1,5-a]pyrrolo[3,4-d]pyrimidin-2-yl]-2-hydroxyacetamide], the results for the IC50 on human P2X2/3 receptors, on human P2X3 receptor [1] and on human P2X3 receptor [2] were over 32000 nM, 245 nM and 587 nM, respectively. The “hP2X23/hP2X3* Selectivity (1321N1)” value on human P2X2/3 receptors is on record as over 55.
Turning to `CC(C)NC(=O)Nc1cc2n(CC(=O)Nc3ccc(F)cn3)c3c(c(=O)n2n1)CN(C(C)C)C3=O` [Example 290, 2-[5,8-dioxo-6-(propan-2-yl)-2-{[(propan-2-yl)carbamoyl]amino}-5,6,7,8-tetrahydro-4H-pyrazolo[1,5-a]pyrrolo[3,4-d]pyrimidin-4-yl]-N-(5-fluoropyridin-2-yl)acetamide], the IC50 at human P2X2/3 receptors stood at 4650 nM; on human P2X3 receptor [1], 115 nM; at human P2X3 receptor [2], 105 nM. Also, the “hP2X23/hP2X3* Selectivity (1321N1)” value at human P2X2/3 receptors came out at 44.
The like results for `CCc1cc2n(CC(=O)Nc3ccc(F)cn3)c3c(c(=O)n2n1)CN(CC(=O)NC(C)C)C3=O` [Example 292] were, in that order, over 32000 nM, 112 nM, 120 nM and over 267.
